Results reported in publication PMC9022596, “Convergent Evolution of Antibiotic Tolerance in Patients with Persistent Methicillin-Resistant Staphylococcus aureus Bacteremia” (Infection and Immunity, 2022).

What was measured:
Assay in all cases: microbe, parasite or virus in culture
Parameters in all cases: Broth microdilution MIC in cation-adjusted MHB-Ca2+, growth inhibition per EUCAST reading
[1] = test system: T1, Staphylococcus aureus PB0412; conditions: PB0412, 16 h
T1 construct: PB0412
Method: (§1) MICs were measured in cation-adjusted Mueller-Hinton broth (MHB) supplemented with 50 μg/mL CaCl2 (MHB-Ca^2+) via broth microdilution in 96-well plates with an inoculum of ∼5 × 10^5 CFU per mL. Antibiotic test concentrations ranged from 0.0625 μg/mL to 32 μg/mL by 2-fold dilutions. Plates were incubated at 37°C for 16 h without shaking, and results were interpreted in accordance with European Committee on Antimicrobial Susceptibility Testing reading guidelines ([72]). S. aureus ATCC 29213 was used as a quality-control strain. TCA cycle defects have been shown previously to cause antibiotic tolerance in laboratory strains of methicillin-sensitive S. aureus (MSSA) ([13], [16]). […] To test this hypothesis, we complemented three of the clinical isolates harboring loss-of-function citZ mutations with either wild-type citZ (pOS1-citZ) or empty vector (pOS1) and then measured bacterial survival through time after exposure to ceftaroline, daptomycin, vancomycin, or the combination of daptomycin plus ceftaroline (Fig. 3). These antibiotics were chosen for their clinical relevance in the treatment of severe MRSA infection.

[2] = test system: T2, Staphylococcus aureus PB1103; conditions: PB1103, 16 h
T2 construct: PB1103
Method: as §1

[3] = test system: T3, Staphylococcus aureus PB0704; conditions: PB0704, 16 h
T3 construct: PB0704
Method: as §1

[4] = test system: T4, Staphylococcus aureus PB1408; conditions: PB1408, 16 h
T4 construct: PB1408
Method: as §1

[5] = test system: T5, Staphylococcus aureus PB0803; conditions: PB0803, 16 h
T5 construct: PB0803
Method: as §1

[6] = test system: T6, Staphylococcus aureus PB0203; conditions: PB0203, 16 h
T6 construct: PB0203
Method: as §1

[7] = test system: T7, Staphylococcus aureus PB1407; conditions: PB1407, 16 h
T7 construct: PB1407
Method: as §1

[8] = test system: T8, Staphylococcus aureus PB0805; conditions: PB0805, 16 h
T8 construct: PB0805
Method: as §1

[9] = test system: T9, Staphylococcus aureus PB0601; conditions: PB0601, 16 h
T9 construct: PB0601
Method: as §1

[10] = test system: T10, Staphylococcus aureus PB0605; conditions: PB0605, 16 h
T10 construct: PB0605
Method: as §1

[11] = test system: T11, Staphylococcus aureus PB1801; conditions: PB1801, 16 h
T11 construct: PB1801
Method: as §1

[12] = test system: T12, Staphylococcus aureus PB0801; conditions: PB0801, 16 h
T12 construct: PB0801
Method: as §1

[13] = test system: T13, Staphylococcus aureus PB0112; conditions: PB0112, 16 h
T13 construct: PB0112
Method: as §1

[14] = test system: T14, Staphylococcus aureus PB0905; conditions: PB0905, 16 h
T14 construct: PB0905
Method: as §1

[15] = test system: T15, Staphylococcus aureus PB0609; conditions: PB0609, 16 h
T15 construct: PB0609
Method: as §1

[16] = test system: T16, Staphylococcus aureus PB1509; conditions: PB1509, 16 h
T16 construct: PB1509
Method: as §1

[17] = test system: T17, Staphylococcus aureus PB0903; conditions: PB0903, 16 h
T17 construct: PB0903
Method: as §1

[18] = test system: T18, Staphylococcus aureus PB0113; conditions: PB0113, 16 h
T18 construct: PB0113
Method: as §1

Row | SMILES | MIC ([1]; replicate 1) | MIC ([1]; replicate 2) | MIC ([2]; replicate 1) | MIC ([2]; replicate 2) | MIC ([3]; replicate 1) | MIC ([3]; replicate 2) | MIC ([4]; replicate 1) | MIC ([4]; replicate 2) | MIC ([5]; replicate 1) | MIC ([5]; replicate 2) | MIC ([6]; replicate 1) | MIC ([6]; replicate 2) | MIC ([7]; replicate 1) | MIC ([7]; replicate 2) | MIC ([8]; replicate 1) | MIC ([8]; replicate 2) | MIC ([9]; replicate 1) | MIC ([9]; replicate 2) | MIC ([10]; replicate 1) | MIC ([10]; replicate 2) | further results
1 | CCO/N=C(\C(=O)N[C@@H]1C(=O)N2C(C(=O)[O-])=C(Sc3nc(-c4cc[n+](C)cc4)cs3)CS[C@H]12)c1nsc(N)n1 [Ceftaroline] | 0.5 mg/L | 0.5 mg/L | 0.5 mg/L | 0.5 mg/L | 0.25 mg/L | 0.25 mg/L | 0.5 mg/L | 0.5 mg/L | 0.5 mg/L | 0.5 mg/L | 0.5 mg/L | 0.5 mg/L | 0.5 mg/L | 0.5 mg/L | 0.5 mg/L | 0.5 mg/L | 0.25 mg/L | 0.25 mg/L | 0.25 mg/L | 0.25 mg/L | MIC ([11]; replicate 1): 0.5 mg/L; MIC ([11]; replicate 2): 0.5 mg/L; MIC ([12]; replicate 1): 0.5 mg/L; MIC ([12]; replicate 2): 0.5 mg/L; MIC ([13]; replicate 1): 0.5 mg/L; MIC ([13]; replicate 2): 0.5 mg/L; MIC ([14]; replicate 1): 0.5 mg/L; MIC ([14]; replicate 2): 0.5 mg/L; MIC ([15]; replicate 1): 0.25 mg/L; MIC ([15]; replicate 2): 0.25 mg/L; MIC ([16]; replicate 1): 0.5 mg/L; MIC ([16]; replicate 2): 0.5 mg/L; MIC ([17]; replicate 1): 0.5 mg/L; MIC ([17]; replicate 2): 0.5 mg/L; MIC ([18]; replicate 1): 0.5 mg/L; MIC ([18]; replicate 2): 0.5 mg/L
2 | CCCCCCCCCC(=O)N[C@@H](Cc1c[nH]c2ccccc12)C(=O)N[C@H](CC(N)=O)C(=O)N[C@@H](CC(=O)O)C(=O)N[C@@H]1C(=O)NCC(=O)N[C@@H](CCCN)C(=O)N[C@@H](CC(=O)O)C(=O)N[C@H](C)C(=O)N[C@@H](CC(=O)O)C(=O)NCC(=O)N[C@H](CO)C(=O)N[C@@H]([C@H](C)CC(=O)O)C(=O)N[C@@H](CC(=O)c2ccccc2N)C(=O)O[C@@H]1C [Daptomycin] | 2 mg/L | 2 mg/L | 1 mg/L | 1 mg/L | 1 mg/L | 1 mg/L | 2 mg/L | 2 mg/L | 2 mg/L | 2 mg/L | 1 mg/L | 1 mg/L | 2 mg/L | 2 mg/L | 1 mg/L | 1 mg/L | 1 mg/L | 1 mg/L | 1 mg/L | 2 mg/L | MIC ([11]; replicate 1): 2 mg/L; MIC ([11]; replicate 2): 2 mg/L; MIC ([12]; replicate 1): 1 mg/L; MIC ([12]; replicate 2): 1 mg/L; MIC ([13]; replicate 1): 1 mg/L; MIC ([13]; replicate 2): 1 mg/L; MIC ([14]; replicate 1): 2 mg/L; MIC ([14]; replicate 2): 2 mg/L; MIC ([15]; replicate 1): 1 mg/L; MIC ([15]; replicate 2): 1 mg/L; MIC ([16]; replicate 1): 2 mg/L; MIC ([16]; replicate 2): 2 mg/L; MIC ([17]; replicate 1): 2 mg/L; MIC ([17]; replicate 2): 2 mg/L; MIC ([18]; replicate 1): 1 mg/L; MIC ([18]; replicate 2): 1 mg/L
3 | CC(=O)NC[C@H]1CN(c2ccc(N3CCOCC3)c(F)c2)C(=O)O1 [Linezolid] | 4 mg/L | 4 mg/L | 4 mg/L | 4 mg/L | 4 mg/L | 4 mg/L | 4 mg/L | 4 mg/L | 4 mg/L | 4 mg/L | 4 mg/L | 4 mg/L | 4 mg/L | 4 mg/L | 4 mg/L | 4 mg/L | 4 mg/L | 4 mg/L | 4 mg/L | 4 mg/L | MIC ([11]; replicate 1): 4 mg/L; MIC ([11]; replicate 2): 4 mg/L; MIC ([12]; replicate 1): 4 mg/L; MIC ([12]; replicate 2): 4 mg/L; MIC ([13]; replicate 1): 4 mg/L; MIC ([13]; replicate 2): 4 mg/L; MIC ([14]; replicate 1): 4 mg/L; MIC ([14]; replicate 2): 4 mg/L; MIC ([15]; replicate 1): 4 mg/L; MIC ([15]; replicate 2): 4 mg/L; MIC ([16]; replicate 1): 4 mg/L; MIC ([16]; replicate 2): 4 mg/L; MIC ([17]; replicate 1): 4 mg/L; MIC ([17]; replicate 2): 4 mg/L; MIC ([18]; replicate 1): 4 mg/L; MIC ([18]; replicate 2): 4 mg/L
